The source of these data is patent US9975897B2, “Pyrazolopyrimidine derivatives useful as inhibitors of Bruton's tyrosine kinase” (Loxo Oncology, Inc., priority 2014, dated 2018).

Where only a bound is given, the exact number is not on record here.

One series relates to TMD8 human DLBCL cells. The experiment in a line: TMD8 growth assay. In kind it is cell-based. As to conditions: 72 hours, Resazurin, Table 3 categories. The method, then: Compounds were assayed for effects on the growth of TMD8 human DLBCL cells that are dependent on NFκB signalling. TMD8 cells were grown in suspension in T225 flasks, centrifuged and re-suspended in 2.5% FBS containing media. Cells were then plated at 1.0×10^4 cells per well in 96-well plates in varying concentrations of compound and incubated for 72 hours at 37° C. An additional plate of cells to be used as the Day 0 read was seeded without compound addition, Resazurin was added to each well, incubated for 5 h and the fluorescence measured at 590 nm. After 72 h of compound treatment, Resazurin was added to each well of the compound treated plates, incubated for 5 hours and the fluorescence measured at 590 nm. The IC50 was then calculated but subtracting the average Day 0 value from each well value from the treated plates, each treatment was then calculated as a percentage of the DMSO control and the percentages plotted against the inhibitor concentration to estimate the IC50 from log [Inhibitor] vs response using the Variable Slope model in Graphpad prism from Graphpad software (San Diego, Calif.).
On the technique in general: Resazurin is reduced to fluorescent resorufin, in cell work by metabolically active cells.

The next series deals with T1, Recombinant BTK kinase (Homo sapiens, UniProt Q06187).
T1 construct: purchased Invitrogen
Kind of series: BTK binding affinity (TR-FRET). The method, then: BTK binding affinity of each compound tested was determined using a time-resolved fluorescence resonance energy transfer (TR-FRET) methodology. 2.5 nM Recombinant BTK kinase, varying concentrations of inhibitor, 2 nM LanthaScreen™ Eu anti-His Antibody and 15 nM Kinase Tracer 236 was incubated in 1× LanthaScreen™ Kinase Buffer A for five hours. Recombinant BTK kinase and all LanthaScreen™ components were purchased from Invitrogen. Measurements were performed in a reaction volume of 30 μL using half-area 96-well assay plates. The TR-FRET signal was read on a plate reader with an excitation wavelength of 340 nm and detection wavelengths of 615 and 665 nm. Binding affinity was determined for each compound by measuring TR-FRET signal at various concentrations of compound and plotting the relative fluorescence units against the inhibitor concentration to estimate the IC50 from log [Inhibitor] vs response using the Variable Slope model in Graphpad prism from Graphpad software (SanDiego, Calif.).
On the technique in general: Time-resolved FRET reads energy transfer from a long-lived donor to a nearby acceptor.

The next series addresses T2, Recombinant EGFR (Homo sapiens, UniProt P00533).
T2 construct: purchased Invitrogen
The experiment in a line: EGFR binding affinity (TR-FRET). Conditions: 2.5 nM recombinant EGFR, five hours incubation, Table 3 categories. The method, then:
EGFR binding affinity was determined using a time-resolved fluorescence resonance energy transfer (TR-FRET) methodology. 2.5 nM Recombinant EGFR, varying concentrations of inhibitor, 2 nM LanthaScreen™ Eu anti-GST Antibody and 3 nM Kinase Tracer 199 was incubated in 1× LanthaScreen™ Kinase Buffer A for five hours. Recombinant EGFR and all LanthaScreen™ components were purchased from Invitrogen. Measurements were performed in a reaction volume of 30 μL using half-area 96-well assay plates. The TR-FRET signal was read on a plate reader with an excitation wavelength of 340 nm and detection wavelengths of 615 and 665 nm. Binding affinity was determined for each compound by measuring TR-FRET signal at various concentrations of compound and plotting the relative fluorescence units against the inhibitor concentration to estimate the IC50 from log [Inhibitor] vs response using the Variable Slope model in Graphpad prism from Graphpad software (SanDiego, Calif.).

For series [1] the following is noted: rat; cited from earlier work.
The mark [2] stands for this setting: 2.5 nM recombinant BTK, five hours incubation, Table 3 categories.

T1 sequence (Q06187 whole entry): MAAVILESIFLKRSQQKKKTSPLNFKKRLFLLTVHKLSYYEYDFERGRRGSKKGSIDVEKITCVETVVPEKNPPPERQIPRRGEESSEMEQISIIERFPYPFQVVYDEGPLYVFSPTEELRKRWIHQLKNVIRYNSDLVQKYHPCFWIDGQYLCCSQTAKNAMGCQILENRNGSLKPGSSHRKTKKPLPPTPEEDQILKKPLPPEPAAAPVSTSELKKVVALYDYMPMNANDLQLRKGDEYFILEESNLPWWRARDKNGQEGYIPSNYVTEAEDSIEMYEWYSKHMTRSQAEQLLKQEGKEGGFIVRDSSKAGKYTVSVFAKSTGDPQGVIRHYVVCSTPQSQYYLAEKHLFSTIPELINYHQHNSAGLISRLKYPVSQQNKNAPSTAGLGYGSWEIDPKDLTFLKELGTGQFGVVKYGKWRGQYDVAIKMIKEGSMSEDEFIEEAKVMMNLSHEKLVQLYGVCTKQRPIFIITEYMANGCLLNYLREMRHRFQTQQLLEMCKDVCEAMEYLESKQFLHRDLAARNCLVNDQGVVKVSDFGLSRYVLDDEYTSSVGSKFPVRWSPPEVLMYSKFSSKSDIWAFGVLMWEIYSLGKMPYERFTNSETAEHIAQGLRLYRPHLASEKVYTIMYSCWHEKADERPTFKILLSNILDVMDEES
T2 sequence (P00533 25-1210): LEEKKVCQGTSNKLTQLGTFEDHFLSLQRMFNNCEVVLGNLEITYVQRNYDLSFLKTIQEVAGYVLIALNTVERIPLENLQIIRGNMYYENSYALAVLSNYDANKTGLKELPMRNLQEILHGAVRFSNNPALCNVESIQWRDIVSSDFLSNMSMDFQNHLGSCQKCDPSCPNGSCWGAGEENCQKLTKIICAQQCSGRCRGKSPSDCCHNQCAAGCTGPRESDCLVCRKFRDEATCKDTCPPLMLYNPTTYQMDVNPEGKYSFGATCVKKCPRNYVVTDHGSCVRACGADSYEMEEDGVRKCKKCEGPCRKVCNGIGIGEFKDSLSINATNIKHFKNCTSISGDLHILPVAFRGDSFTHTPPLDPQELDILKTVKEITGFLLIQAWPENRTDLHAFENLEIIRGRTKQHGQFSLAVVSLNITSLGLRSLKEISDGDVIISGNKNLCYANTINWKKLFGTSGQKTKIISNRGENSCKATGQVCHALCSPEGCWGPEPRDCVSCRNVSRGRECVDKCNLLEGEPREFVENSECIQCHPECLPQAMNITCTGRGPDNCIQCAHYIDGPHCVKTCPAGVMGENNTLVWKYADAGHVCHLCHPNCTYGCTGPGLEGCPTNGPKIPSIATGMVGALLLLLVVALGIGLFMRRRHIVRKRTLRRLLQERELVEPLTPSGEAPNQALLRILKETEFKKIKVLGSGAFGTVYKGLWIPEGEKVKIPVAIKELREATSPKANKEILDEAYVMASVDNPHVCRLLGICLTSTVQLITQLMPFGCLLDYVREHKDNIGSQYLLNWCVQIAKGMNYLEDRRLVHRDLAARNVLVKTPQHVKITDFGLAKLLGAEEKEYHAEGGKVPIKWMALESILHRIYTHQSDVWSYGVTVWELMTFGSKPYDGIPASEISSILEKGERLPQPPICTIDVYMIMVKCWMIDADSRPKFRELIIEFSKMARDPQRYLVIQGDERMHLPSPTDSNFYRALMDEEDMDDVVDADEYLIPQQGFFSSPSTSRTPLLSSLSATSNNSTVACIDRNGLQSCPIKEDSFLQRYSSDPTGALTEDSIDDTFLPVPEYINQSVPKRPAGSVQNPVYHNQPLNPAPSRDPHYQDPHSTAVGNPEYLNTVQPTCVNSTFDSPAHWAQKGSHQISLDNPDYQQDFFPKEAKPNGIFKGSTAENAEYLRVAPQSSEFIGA

For `C=CC(=O)N1CCC[C@@H](n2nc(-c3ccc(CNC(=O)c4ccc(C)cc4OC)cc3)c3c(N)ncnc32)C1` [ID No. 15, N-[[4-[4-amino-1-[(3R)-1-prop-2-enoyl-3-piperidyl]pyrazolo[3,4-d]pyrimidin-3-yl]phenyl]methyl]-2-methoxy-4-methyl-benzamide], the IC50 (usually the midpoint of a concentration-inhibition curve) with TMD8 human DLBCL cells was below 5 nM; on Recombinant BTK kinase (setting [2]), 0.5 to 1 nM; at Recombinant BTK kinase (Table 4 numeric values), 0.7 nM; at Recombinant EGFR, 25 to 80 nM.
`C=CC(=O)N1CCC[C@@H](n2nc(-c3ccc(CNC(=O)c4ccc(C(F)(F)F)cc4F)cc3)c3c(N)ncnc32)C1` [ID No. 36, N-[[4-[4-amino-1-[(3R)-1-prop-2-enoyl-3-piperidyl]pyrazolo[3,4-d]pyrimidin-3-yl]phenyl]methyl]-2-fluoro-4-(trifluoromethyl)benzamide]: the IC50 in the series with TMD8 human DLBCL cells is 25 to 300 nM; at Recombinant BTK kinase (setting [2]) it was 1 to 10 nM; at Recombinant EGFR, below 25 nM.
As to `C=CC(=O)N1CCC[C@@H](n2nc(-c3ccc(Oc4ccccc4)cc3)c3c(N)ncnc32)C1` [Ibrutinib], in series [1], the bioavailability result is given as “poor” and the estimated fraction absorbed result was “low”.
